{"source": "paper PMC5354814", "about": "“In silico and in vitro drug screening identifies new therapeutic approaches for Ewing sarcoma” (Oncotarget, 2016)", "key": {"[1]": {"tested_on": "human polymorphonuclear neutrophil", "parameters": "method as in ref 19 (a number printed in a supplementary file, which may have a reference list of its own: not looked up in the article's list)", "details": "0.1 - 1.0 µg auranofin/mL; cited from earlier work"}, "[2]": {"tested_on": "natural killer cells", "parameters": "method as in ref 19 (a number printed in a supplementary file, which may have a reference list of its own: not looked up in the article's list)", "details": "cited from earlier work"}, "[3]": {"details": "cited from earlier work"}, "[4]": {"tested_on": "Rhesus monkey skin", "parameters": "method as in ref 19 (a number printed in a supplementary file, which may have a reference list of its own: not looked up in the article's list)", "details": "1.5 x 10^-4M; cited from earlier work"}, "[5]": {"parameters": "method as in ref 19 (a number printed in a supplementary file, which may have a reference list of its own: not looked up in the article's list)", "details": "5 and 10 µg gold/kg for 2 weeks; cited from earlier work"}, "[6]": {"tested_on": "human lymphocyte", "parameters": "method as in ref 19 (a number printed in a supplementary file, which may have a reference list of its own: not looked up in the article's list)", "details": "0.1 - 1.0 µg auranofin/mL; cited from earlier work"}, "[7]": {"assay": "Other animal xenograft models, oral auranofin", "assay_type": "in vivo", "details": "unpublished data", "text": "As previously reported, Ridaura® was first developed for the management of rheumatoid arthritis as a disease-modifying anti-rheumatic drug (DMARD). However, the adverse effects and the concerns about the long-term consequences of the immunosuppression induced by Ridaura® led to the decline in its use. […] Therefore, we sought to determine if altering the route of delivery could replicate the dramatic in vitro anticancer activity and improve its efficacy in vivo. Previous studies have shown that orally delivered auranofin is rapidly metabolized and intact auranofin has never been detected in the blood. Thus, studies of the pharmacokinetics of auranofin have involved measurement of gold concentrations. Upon oral administration, 25% of auranofin gets absorbed."}, "[8]": {"parameters": "method as in ref 19 (a number printed in a supplementary file, which may have a reference list of its own: not looked up in the article's list)", "details": "dogs, cited from earlier work"}, "[9]": {"parameters": "method as in ref 19 (a number printed in a supplementary file, which may have a reference list of its own: not looked up in the article's list)", "details": "dog, cited from earlier work"}, "[10]": {"details": "cited from earlier work", "remark": "listed apart in the source"}, "[11]": {"tested_on": "human monocytes", "parameters": "method as in ref 19 (a number printed in a supplementary file, which may have a reference list of its own: not looked up in the article's list)", "details": "0.125 µg auranofin/mL; cited from earlier work"}, "[12]": {"parameters": "method as in ref 19 (a number printed in a supplementary file, which may have a reference list of its own: not looked up in the article's list)", "details": "cited from earlier work"}, "[13]": {"parameters": "method as in ref 19 (a number printed in a supplementary file, which may have a reference list of its own: not looked up in the article's list)", "details": "intravenous, 20 mg auranofin/kg; cited from earlier work"}, "[14]": {"tested_on": "rate leukocytes", "parameters": "method as in ref 19 (a number printed in a supplementary file, which may have a reference list of its own: not looked up in the article's list)", "details": "10^-3 to 10^-6M; cited from earlier work"}, "[15]": {"assay": "Auranofin dose tolerance studies (maximum tolerated dose)", "assay_type": "in vivo, BALB/c mice", "text": "These findings led us to develop and assess injectable (i.v. and i.p.) formulations of auranofin. By defining maximum tolerated dose (MTD) following i.v. and i.p. administration of solution and suspension formulations of auranofin, our intent was to evaluate auranofin alone and in combination with ganetespib at MTD in mouse xenograft studies using the more convenient i.p. route of administration. Following administration of the solution formulation of auranofin i.v. and i.p., the maximum tolerated dose was estimated at 1 mg/kg and 6 mg/kg, respectively. Following a single i.p. suspension dose of auranofin, the maximum tolerated dose was 16 mg/kg. This dose was reduced to 12 mg/kg and dose tolerance was evaluated after 5 daily doses of auranofin suspension i.p. to determine the effects of the accumulation of gold in the blood due to the slow elimination of gold. Based on the i.p. suspension dose tolerance studies, the auranofin suspension formulation and dose level of 12 mg/kg was selected for evaluation in xenograft mouse studies.\nThe auranofin dose tolerance and pharmacokinetics study protocols were approved by the KU-Lawrence Institutional Animal Care and Use Committee (KU-IACUC). Subchronic dose tolerance studies were conducted in BALB/c mice to support the design of EWS mouse xenograft studies. By establishing the Maximum Tolerated Dose (MTD), we defined the upper limit of doses selected for EWS mouse xenograft and in vivo pharmacokinetics studies. Mice received a single dose of auranofin solution and suspension administered by i.v. and i.p. routes of administration. Following a starting dose of 1 mg/kg, doses were escalated in subsequent mice until intolerable drug-related adverse effects were observed. MTD was defined as the maximum dose that was not associated dose-limiting adverse effects in mice. The MTD was confirmed in a group of 3 mice. Mice were continuously monitored for up to 4 hours post-dose."}}, "note": "Like-named read-outs stand apart in the source and are kept apart here."}
{"smiles": "CC(=O)OC[C@H]1O[C@@H]([S-])[C@H](OC(C)=O)[C@@H](OC(C)=O)[C@@H]1OC(C)=O.CCP(CC)CC.[Au+]", "note": "[Auranofin, auranofin]", "values": [{"measurement": "superoxide production and phagocytosis", "setting": "[1]", "value": "inhibited"}, {"measurement": "activity of natural killer cells", "setting": "[2]; high concentrations, 1.0 - 2.5 µg auranofin/mL", "value": "inhibited"}, {"measurement": "activity of natural killer cells", "setting": "[2]; low concentrations, 0.125 - 0.5 µg auranofin/mL", "value": "stimulated"}, {"measurement": "LD50", "setting": "[3]; Rat CD, F, PO", "value": 330, "unit": "mg/kg"}, {"measurement": "acute oral LD50", "setting": "[3]; adult rats", "value": 265, "unit": "mg/kg"}, {"measurement": "minimum lethal dose", "setting": "[3]; rats", "value": 30, "unit": "mg/kg"}, {"measurement": "lethality (LD50) in rats when given concomitantly with other drugs", "setting": "[3]; warfarin at usual human daily dose, clonidine, propoxyphene at five times, others at ten or twenty times", "value": "potentiated"}, {"measurement": "histamine release", "setting": "[4]", "value": "inhibition"}, {"measurement": "hemagglutinating IgG antibodies to SRBC and antibodies to mouse fibroblasts", "setting": "[5]", "value": "suppressed"}, {"measurement": "phytohemagglutinin-induced mitogenesis", "setting": "[6]", "value": "inhibited"}, {"measurement": "efficacy when given orally", "setting": "[7]", "value": "not effective"}, {"measurement": "chronic toxicity, anemia in middle and high dose groups", "setting": "[8]; oral 0.6, 1.2 and 2.4-6.0 mg/kg/day, 12 months", "value": "intravascular hemolytic anemia"}, {"measurement": "subacute toxicity findings", "setting": "[8]; oral 1.8, 3.6-7.2 and 6.9-18.0 mg/kg/day, 3 months", "value": "Dose-related emesis, diarrhea, decreased food consumption"}, {"measurement": "absorption after oral dosing", "setting": "[9]", "value": 26, "unit": "%"}, {"measurement": "blood gold in plasma proteins", "setting": "[9]", "value": 17, "unit": "%"}, {"measurement": "blood gold in red blood cells", "setting": "[9]", "value": 82, "unit": "%"}, {"measurement": "urinary excretion", "setting": "[9]", "value": 16, "unit": "%"}, {"measurement": "elimination in feces", "setting": "[9]; within 21 days", "value": 83, "unit": "%"}, {"measurement": "findings in pregnant rats", "setting": "[10]; 2.5 mg/kg/day", "value": "No such effects were found"}, {"measurement": "findings in pregnant rats", "setting": "[10]; 5 mg/kg/day", "value": "increase above controls in the inc idence of resorptions and a decrease in litter size"}, {"measurement": "perinatal and postnatal study findings, high dose group", "setting": "[10]; female rats, 8 mg/kg/day, last trimester and lactation", "value": "An increase in fetal resorption"}, {"measurement": "general reproductive performance", "setting": "[10]; female rats, oral 0.25, 0.75 and 3.0 mg/kg/day", "value": "no adverse effect on estrous cyclicity"}, {"measurement": "litter size, birth weight or viability of the offspring", "setting": "[10]; female rats, oral 0.5, 2.5 and 5 mg/kg/day, days 6-15 of pregnancy", "value": "no effect on litter size"}, {"measurement": "ADCC of human monocytes", "setting": "[11]", "value": "reduced"}, {"measurement": "murine antibody production against SRBC", "setting": "[12]", "value": "inconsistent inhibition"}, {"measurement": "48-hour passive cutaneous anaphylaxis", "setting": "[13]", "value": "inhibition"}, {"measurement": "particle-stimulated lysosomal enzyme release", "setting": "[14]", "value": "significantly reduced"}, {"measurement": "maximum tolerated dose", "setting": "[15]; solution formulation, i.p.", "value": 6, "unit": "mg/kg"}, {"measurement": "maximum tolerated dose", "setting": "[15]; solution formulation, i.v.", "value": 1, "unit": "mg/kg"}, {"measurement": "maximum tolerated dose", "setting": "[15]; suspension, single i.p. dose", "value": 16, "unit": "mg/kg"}]}
